“And” between values parts separate entries of the source, which are not always exact repeats. Equal entries are not always repeated. Where two headings read alike, the source gives them in different places.
How the values were obtained:
RKO cells = test: CRC cell proliferation assay (CCK8), RKO; assay type: cell-based; settings: Homo sapiens
Description: Three CRC cell lines HT29, HCT116 and RKO were used in this study. The American Type Culture Collection (ATCC; Manassas, Va., USA) provided human CRC cell lines HT29 (ATCC HTB-38; mutant TP53, p.R273H; APC frame shift, p. E1554fs; wild type β-catenin), HCT116 (ATCC CCL-247; wild type TP53; wild type APC; deletion β-catenin, p. S45del) and RKO (ATCC CRL-2577; wild type TP53; wild type APC; wild type β-catenin). Three CRC cells lines as listed above were cultured in adherent culture condition, maintained at 37° C. inside the cell incubation containing 5% CO2. The two cell lines of HCT-116 and HT-29 cells were cultured in McCoy's 5A medium with supplemented 10% fetal bovine serum (Gibco; Thermo Fischer Scientific, Grand Island, N.Y., USA)), 1% penicillin and 1% streptomycin. RKO cell was cultured in MEM medium with supplemented 10% FBS, 1% penicillin, 1% streptomycin and 1% sodium pyruvate. The cell cultures were passaged by trypsinization every three days. BM-BMX (BMX), (E)-2-(4-Methoxybenzyloxy)-3-prenyl-4-methoxy-N-hydroxycinamide, was provided by Nature Wise Biotech & Medicals Corporation (Taipei, Taiwan).
We plated 4000 CRC cells per well in 96-well plates and allowed them to adhere overnight. To validate cell line responsiveness to BMX and TMZ monotherapy, the cells were treated with different doses of BMX or TMZ for 24, 48, and 72 hrs. To confirm cell responsiveness to the BMX-TMZ combination, cells were either treated with different doses of TMZ ([…]) with or without BMX (5 μM) for 24, 48, and 72 hrs or with different doses of BMX (0-10 μM) with or without TMZ (50 μM) for 24, 48, and 72 hrs. Following treatment, the absorption value was measured using a CCK8 kit (Targetmol, Shanghai, China) at the indicated time points. The results are reported as the mean±standard deviation of at least three replicates.

[1] = tested on: GBM-R cells (U87MG-R and A172-R); test: GBM-R cell viability time course (FIG. 2F); assay type: cell-based, human; settings: BMX 10 μM alone, FIG. 2F (24, 48, and 72 hrs)
Description: (A) Chemical structure of BMX. (B) Cell viability of GBM and GBM-R cell lines after treatment with 0.5, 10, 15, 30, or 50 μM BMX. (C) Cell viability of GBM and GBM-R cell lines after treatment with 0.25, 50, 100, 200, 400, or 800 μM TMZ. (D) GBM and GBM-R cell viability after treatment with 10 μM BMX with or without TMZ at various concentrations (0.25, 50, 100, 200, 400, or 800 μM) for 24 hrs. (E) GBM and GBM-R cell viability after treatment with 50 μM TMZ with or without BMX at various concentrations (0.5, 10, 15, 30, or 50 μM) for 24 hrs. (F) GBM-R cell viability after treatment with 50 μM TMZ with or without 10 μM BMX for 24, 48, and 72 hrs. (G) Colony formation assay of GBM and GBM-R cell lines with BMX (0, 5, or 10 μM) with or without TMZ (50 μM) for 14 days. Data are represented as means±SEM from three experiments. *p<0.05 vs. control (A172 and U87MG); #p<0.05 vs. (A172-R and U87MG-R).
We plated 3000 GBM cells per well in 96-well plates and allowed them to adhere overnight. To validate cell line responsiveness to BMX and TMZ monotherapy, the cells were treated with different doses of BMX or TMZ for 24, 48, and 72 hrs. […] Following treatment, the absorption value was measured using a CCK8 kit (Targetmol, Shanghai, China) at the indicated time points. […]

P62 and LC3-II = test: Western blot of autophagy markers in CRC cells; assay type: cell-based, human; settings: HT29, HCT116 and RKO cells; BMX (5 and 10 μM) with or without 50 μM TMZ; FIG. 18A
Description: Western blot analysis was used to examine the indicated protein expression levels under various concentrations of BMX (0-10 μM), and SAHA, VPA or PCI-34051 in the presence or absence of TMZ (50 μM) or OXP (5 μM) of the tested cell lines. SDS-PAGE and Western blot analysis was performed on lysates prepared as outlined previously. The specific primary antibodies against acetyl-histone H3 (Lys9/Lys14), acetyl-histone H4 (Lys8), P53, acetyl-p53 (Lys382), phospho-p53 (Ser15), P21, P16, MGMT, phosphor-H2AX (S139), E2F1, E2F3, Cleaved Caspase-3, Cleaved Caspase-8, Cleaved Caspase-7, Cleaved Caspase-9, PARP, Bax, Bcl-2, Bid, Bim, Bak, Puma, β-catenin, phospho-β-catenin(Ser/33/37/41), GSK3β, phospho-GSK3β (Ser 9), c-Myc, Cyclin D1, P62, LC3B, CD133, CD44, SOX-2 and HDAC8 were used for detection, and GAPDH, α-tubulin or β-actin was used as the internal control. After incubation with the primary antibodies, and then incubated with horseradish peroxidase (HRP)-conjugated secondary antibodies, the HRP signals were detected with a chemical HRP substrate. Signal of each target protein was visualized by incubation with an enhanced chemiluminescent reagent and exposure to X-ray film.

HT29 cells = test: Clonogenic (colony formation) assay, HT29; assay type: cell-based; settings: Homo sapiens, HT-29, 336 h, 14 days, read-out: IC50 values of TMZ, clonogenic assay
Description: For the anchorage-dependent growth assay, 1000 cells were resuspended in the medium and seeded in 6-well plates. […] After 14 days, the media were removed and the cells were washed and fixed with 4% paraformaldehyde for 30 min, and stained with 0.1% crystal violet for 20 min at 25° C. The intensity of crystal violet was quantified by the absorbance of 570 nm after dissolving the stained cells with dimethyl sulfoxide (DMSO). The results are expressed as the average colony±SE from three independent experiments.

COc1ccc(COc2c(/C=C/C(=O)NO)ccc(OC)c2CC=C(C)C)cc1 [BMX, (E)-2-(4-Methoxybenzyloxy)-3-prenyl-4-methoxy-N-hydroxycinamide]
IC50 (RKO cells; 24 h, BMX alone, 24 hrs, read-out: IC50 of BMX): 38.5 ± 3.5 µM | IC50 (RKO cells; 24 h, TMZ 50 μM combined with different concentrations of BMX, 24 hrs, read-out: IC50 of BMZ): > 10 µM | IC50 (RKO cells; 48 h, BMX alone, 48 hrs, read-out: IC50 of BMX): 7.2 ± 0.6 µM | IC50 (RKO cells; 48 h, TMZ 50 μM combined with different concentrations of BMX, 48 hrs, read-out: IC50 of BMZ): 3.6 ± 0.4 µM | IC50 (RKO cells; 72 h, BMX alone, 72 hrs, read-out: IC50 of BMX): 1.5 ± 0.2 µM | IC50 (RKO cells; 72 h, TMZ 50 μM combined with different concentrations of BMX, 72 hrs, read-out: IC50 of BMZ): 0.9 ± 0.1 µM | cell viability (cytotoxic effect, fold) [1]: 0.88 × and 0.77 × and 0.63 × | expression of P62 and LC3-II (P62 and LC3-II): concentration-dependent increase in the expression of P62 and LC3-II

Cn1nnc2c(C(N)=O)ncn2c1=O [TMZ, Temozolomide, reference compound]
IC50 (RKO cells; 24 h, BMX 5 μM combined with different doses of TMZ, 24 hrs, read-out: IC50 of TMZ): > 400 µM | IC50 (RKO cells; 24 h, TMZ alone, 24 hrs, read-out: IC50 of TMZ): > 1000 µM | IC50 (RKO cells; 48 h, BMX 5 μM combined with different doses of TMZ, 48 hrs, read-out: IC50 of TMZ): 21.9 ± 2.7 µM | IC50 (RKO cells; 48 h, TMZ alone, 48 hrs, read-out: IC50 of TMZ): 992 ± 52.4 µM | IC50 (RKO cells; 72 h, TMZ alone, 72 hrs, read-out: IC50 of TMZ): 380 ± 40.3 µM | IC50 (HT29 cells): 359 ± 50.4 µM
